Assay results taken from ChEMBL document CHEMBL2021885, “Triphenylbutanamines: kinesin spindle protein inhibitors with in vivo antitumor activity” (J Med Chem, 2012).
In brackets after ≈: the same amount, converted by molar mass. Blank lines part the entries; values can stand above or below the compound they belong to.

Tests used:
[1] = target: T1, Kinesin-like protein KIF11 (Homo sapiens, UniProt P52732)
T1 sequence (P52732 whole entry): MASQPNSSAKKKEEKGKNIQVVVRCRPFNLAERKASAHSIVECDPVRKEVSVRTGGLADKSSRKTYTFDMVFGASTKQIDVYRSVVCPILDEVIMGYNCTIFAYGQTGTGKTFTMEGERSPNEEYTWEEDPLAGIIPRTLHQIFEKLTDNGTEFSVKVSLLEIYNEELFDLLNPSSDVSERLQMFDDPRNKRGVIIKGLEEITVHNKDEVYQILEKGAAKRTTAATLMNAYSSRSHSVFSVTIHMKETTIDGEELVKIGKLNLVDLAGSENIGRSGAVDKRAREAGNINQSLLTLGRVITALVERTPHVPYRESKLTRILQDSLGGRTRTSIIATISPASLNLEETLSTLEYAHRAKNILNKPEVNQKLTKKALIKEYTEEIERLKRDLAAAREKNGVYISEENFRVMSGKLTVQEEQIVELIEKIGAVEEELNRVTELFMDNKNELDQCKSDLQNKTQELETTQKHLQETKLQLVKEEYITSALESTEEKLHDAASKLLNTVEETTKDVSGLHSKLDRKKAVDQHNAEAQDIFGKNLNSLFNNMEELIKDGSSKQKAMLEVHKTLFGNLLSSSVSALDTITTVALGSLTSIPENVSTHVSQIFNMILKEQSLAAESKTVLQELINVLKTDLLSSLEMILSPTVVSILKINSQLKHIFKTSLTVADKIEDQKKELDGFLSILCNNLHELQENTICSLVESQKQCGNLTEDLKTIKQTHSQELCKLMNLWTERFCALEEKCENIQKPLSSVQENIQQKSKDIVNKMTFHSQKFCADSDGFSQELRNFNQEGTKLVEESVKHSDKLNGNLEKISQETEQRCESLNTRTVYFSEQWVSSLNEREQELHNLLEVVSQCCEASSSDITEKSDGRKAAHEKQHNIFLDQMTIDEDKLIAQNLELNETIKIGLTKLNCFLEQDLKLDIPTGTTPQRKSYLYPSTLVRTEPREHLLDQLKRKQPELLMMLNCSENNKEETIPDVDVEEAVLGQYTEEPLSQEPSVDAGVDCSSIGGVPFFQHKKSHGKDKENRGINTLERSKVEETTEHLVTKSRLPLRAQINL

[2] = Antiproliferative activity against human hTERT-HME1 cells after 72 hrs by Alamar blue assay; assay type: cell-based
[3] = Turbidimetric solubility of the compound at pH 6; assay type: physicochemical; conditions: buffer
[4] = system: Liver microsomes; test: Intrinsic clearance in human liver microsomes assessed as per mg of protein; assay type: ADME, Microsome
[5] = Distribution coefficient, log D of the compound at pH 7.4; assay type: physicochemical; conditions: octanol/water
[6] = Turbidimetric solubility of the compound at pH 7.4; assay type: physicochemical; conditions: buffer
[7] = Turbidimetric solubility of the compound at pH 2; assay type: physicochemical; conditions: buffer
[8] = Intrinsic clearance in human hepatocytes assessed as per million cells; assay type: ADME, cell-based, Hepatocyte
[9] = Lipophilicity, Log P of the compound; assay type: physicochemical; conditions: octanol/water
[10] = Dissociation constant, pKa of the compound; assay type: physicochemical
[11] = system: K562; test: cells; conditions: Homo sapiens, K562, 72 h
Description: Antiproliferative activity against human K562 cells after 72 hrs by Alamar blue assay

[12] = Apparent permeability of the compound by PAMPA method; assay type: ADME
[13] = Half life at pH 1.0 assessed as compound hydrolysis; assay type: physicochemical; conditions: buffer
[14] = system: Liver; test: Intrinsic clearance in mouse liver microsomes assessed as per mg of protein; assay type: ADME, Microsome
[15] = system: BXPC-3; test: Antiproliferative activity against human BxPC3 cells after 72 hrs by Alamar blue assay; assay type: functional; conditions: BXPC-3, 72 h
[16] = system: NCI-H1299; test: Antiproliferative activity against human NCI-H1299 cells after 72 hrs by Alamar blue assay; assay type: functional; conditions: NCI-H1299, 72 h
[17] = system: HCT-116; test: Antiproliferative activity against human HCT116 cells after 72 hrs by Alamar blue assay; assay type: functional; conditions: HCT-116, 72 h
[18] = physchem

SMILES: N#Cc1cccc(C(SCCN)(c2ccccc2)c2ccccc2)c1
Ki [1]: 451 nM

SMILES: Cc1cccc(C(CCCN)(c2ccccc2)c2ccccc2)c1
GI50 at 72 h [2]: 150 nM | solubility kinetic [3]: > 100 µM | CLH [4]: Stable | logD [5]: 2.33 | solubility kinetic [6]: > 100 µM | solubility kinetic [7]: > 100 µM | CLH [8]: 3.93 µL/min | logP [9]: 4.69 | pKa [10]: 10.1

SMILES: NCCSC(c1ccccc1)(c1ccccc1)c1cccc(F)c1
Ki [1]: 377 nM

SMILES: CC(C)c1cccc(C(SCCN)(c2ccccc2)c2ccccc2)c1
GI50 [11]: 581 nM

SMILES: NC(=O)c1cccc(C(SC[C@H](N)C(=O)O)(c2ccccc2)c2ccccc2)c1
GI50 [11]: 16700 nM | Papp [12]: impermeable

SMILES: NCCSC(c1ccccc1)(c1ccccc1)c1ccc(C(N)=O)cc1
GI50 [11]: 4340 nM

SMILES: Cc1cccc(C(SCCN)(c2ccccc2)c2ccccc2)c1
GI50 [11]: 698 nM

SMILES: CC(=O)NCc1ccc(C(SCCN)(c2ccccc2)c2ccccc2)cc1
GI50 [11]: 2900 nM

t1/2 [13]: 2.5 h
SMILES: NCCOC(c1ccccc1)(c1ccccc1)c1ccccc1

SMILES: CS(=O)(=O)c1ccc(C(SCCN)(c2ccccc2)c2ccccc2)cc1
GI50 [11]: 2740 nM

SMILES: NCCSC(c1ccccc1)(c1ccccc1)c1cccc(OC(F)(F)F)c1
GI50 [11]: 1520 nM

SMILES: Cc1ccc(C(=O)N(CCCN)[C@@H](c2nc3cc(Cl)ccc3c(=O)n2Cc2ccccc2)C(C)C)cc1 [ISPINESIB]
GI50 [11]: 71 nM | GI50 at 72 h [2]: 32 nM | CLH [4]: Stable | logD [5]: 2.66 | CLH [14]: Stable | CLH [8]: 0.75 µL/min | logP [9]: 4.75 | pKa [10]: 9.34

t1/2 [13]: <= 2.9 hr
SMILES: N[C@@H](CNC(c1ccccc1)(c1ccccc1)c1ccccc1)C(=O)O

SMILES: Cc1ccc(C(CCC(N)C(=O)O)(c2ccccc2)c2ccccc2)cc1 (racemic)
GI50 [15]: 151 nM | GI50 at 72 h [2]: 44 nM | GI50 [16]: 204 nM | GI50 [17]: 84 nM

SMILES: CC(=O)c1cccc(C(SCCN)(c2ccccc2)c2ccccc2)c1
GI50 [11]: 706 nM

SMILES: NCCSC(c1ccccc1)(c1ccccc1)c1cccc(C(=O)O)c1
GI50 [11]: 2140 nM

SMILES: N[C@@H](CSC(c1ccccc1)(c1ccccc1)c1ccccc1)C(=O)O [S-TRITYL-L-CYSTEINE]
GI50 at 72 h [2]: 361 nM

SMILES: Cc1ccc(C(CC[C@H](N)C(=O)O)(c2ccccc2)c2ccccc2)cc1
GI50 [11]: 149 nM | GI50 [15]: 268 nM | GI50 at 72 h [2]: 49 nM | GI50 [16]: 305 nM | GI50 [17]: 115 nM

SMILES: CC(=O)NCc1cccc(C(SCCN)(c2ccccc2)c2ccccc2)c1
GI50 [11]: 2130 nM

SMILES: CN(C)C(=O)c1ccc(C(SCCN)(c2ccccc2)c2ccccc2)cc1
GI50 [11]: 2910 nM

SMILES: N[C@@H](CCC(c1ccccc1)(c1ccccc1)c1ccccc1)C(=O)O
GI50 [11]: 2060 nM | GI50 [15]: 4860 nM | GI50 at 72 h [2]: 721 nM | GI50 [16]: 4020 nM | GI50 [17]: 1600 nM

SMILES: N[C@@H](CSC(c1ccccc1)(c1ccccc1)c1cccc(Cl)c1)C(=O)O
GI50 [11]: 2400 nM | Ki [1]: 89.9 nM

SMILES: NCCSC(c1ccccc1)(c1ccccc1)c1ccc(CO)cc1
GI50 [11]: 783 nM

SMILES: NCCSC(c1ccccc1)(c1ccccc1)c1cccc(C(F)(F)F)c1
Ki [1]: 353 nM

SMILES: CCCc1cccc(C(SCCN)(c2ccccc2)c2ccccc2)c1
GI50 [11]: 1760 nM | solubility kinetic [18]: 3.75 µM (≈ 1.36 µg/mL)

SMILES: NC(CCC(c1ccccc1)(c1ccccc1)c1ccccc1)C(=O)O (racemic)
GI50 [11]: 865 nM | GI50 [15]: 1490 nM | GI50 at 72 h [2]: 494 nM | GI50 [16]: 2820 nM | GI50 [17]: 828 nM
